Results taken from paper PMC4875962 (Clinical Pharmacokinetics, 2015).
Read-outs that look alike come from different tables or passages of the source.

Key:
[1] = In vitro plasma protein binding
[2] = Drug-drug interaction studies: effect on edoxaban pharmacokinetics; conditions: coadministration of high-dose aspirin (325 mg); data on file
OAT3 = conditions: cited from earlier work
OAT1 [3] = conditions: read-out: IC50, inhibitory effect on OAT1; cited from earlier work
OAT1 [4] = conditions: cited from earlier work
[5] = cited from earlier work
[6] = tested on: thrombin generation and platelet activation; conditions: postdose; cited from earlier work
[7] = cited from earlier work; remark: listed apart in the source
[8] = coadministration of amiodarone, following 3 days of once daily dosing
[9] = coadministration of cyclosporine
[10] = coadministration of dronedarone
[11] = coadministration of erythromycin
[12] = coadministration of high-dose aspirin (325 mg)
[13] = coadministration of ketoconazole
[14] = coadministration of oral quinidine
[15] = coadministration of sustained-release verapamil
[16] = rifampin after 7 days of dosing

CN1CCc2nc(C(=O)N[C@@H]3C[C@@H](C(=O)N(C)C)CC[C@@H]3NC(=O)C(=O)Nc3ccc(Cl)cn3)sc2C1 [edoxaban]
fraction unbound [1]: ~0.45 | reduction of renal clearance of edoxaban [2]: 17% | substrate of OAT3 (OAT3): is not a substrate | IC50 (OAT1 [3]): ≥ 100 µM | substrate of OAT1 (OAT1 [4]): is not a substrate | increase in peak exposure to single doses of edoxaban [5, 8]: 66% | increase in total exposure to single doses of edoxaban [5, 8]: 40% | effect on peak or total exposure to edoxaban ([5]; coadministration of atorvastatin): no effect | increase in peak exposure to single doses of edoxaban [5, 9]: 74% | increase in total exposure to single doses of edoxaban [5, 9]: 73% | increase in edoxaban Cmax ([5]; coadministration of digoxin, steady state): 16% | effect on total exposure or renal clearance at steady state ([5]; coadministration of digoxin): no significant effect | increase in peak exposure to single doses of edoxaban [5, 10]: 46% | increase in total exposure to single doses of edoxaban [5, 10]: 85% | increase in peak exposure to single doses of edoxaban [5, 11]: 68% | increase in total exposure to single doses of edoxaban [5, 11]: 85% | increase in steady-state peak exposure to edoxaban [5, 12]: 34% | increase in steady-state total exposure to edoxaban [5, 12]: 30% | increase in single-dose peak exposure to edoxaban [5, 13]: 89% | increase in single-dose total exposure to edoxaban [5, 13]: 87% | effect on peak and total exposure to edoxaban ([5]; coadministration of naproxen): no effect | increase in 24-h exposure to orally dosed edoxaban [5, 14]: 77% | increase in single-dose peak exposure to orally dosed edoxaban [5, 14]: 85% | increase in 24-h exposure to single doses of edoxaban [5, 15]: 53% | increase in peak exposure to single doses of edoxaban [5, 15]: 53% | increase in exposure to edoxaban (Cmax and AUC) ([5]; concomitant P-gp inhibitor use): less than twofold | decrease in peak exposure to edoxaban ([5]; edoxaban 2 h after esomeprazole at steady state): about 33% | effect on peak and total exposure to edoxaban ([5]; enoxaparin dosed concomitantly or 12 h apart): did not affect | increase in Cmax of edoxaban ([5]; esomeprazole, 2-h stagger at steady state, 90 % CI 57.98–78.07): approximately 33% | effect on total exposure to edoxaban ([5]; esomeprazole, 2-h stagger at steady state, 90 % CI within 80–125 %): no significant effect | effect on peak and total exposure to edoxaban ([5]; esomeprazole, concurrent dosing): no significant effect | increase in peak exposure to intravenous edoxaban ([5]; orally administered quinidine): 7.5% | increase in total exposure to intravenous edoxaban ([5]; orally administered quinidine): 35% | decrease in total edoxaban exposure [5, 16]: about 34% | effect on peak edoxaban exposure [5, 16]: no effect | time of nadir for shed blood F1+2 and β-thromboglobulin [6]: 1.5 h | effect of ABCB1 genotype (C3435T) on pharmacokinetics [7]: no effect
